Laboratory results from ChEMBL document CHEMBL5705887, “Distinct concentration-dependent effects of the polo-like kinase 1-specific inhibitor GSK461364A, including differential effect on apoptosis” (Cancer Res, 2009).
Calls of active or inactive are those of the source. No cut-off for these calls is given here.

How the values were obtained:
Calu-1 = test: Antiproliferative activity against human Calu-1 cells assessed as growth inhibition incubated for 72 hrs by celltiter-glo assay; type: functional
SK-MEL-5 = test: Antiproliferative activity against human SK-MEL-5 cells assessed as viable cell signal at maximum growth inhibition incubated for 72 hrs by celltiter-glo assay relative to control; type: functional
Raji [1] = test: Antiproliferative activity against human Raji cells assessed as growth inhibition incubated for 72 hrs by celltiter-glo assay; type: functional
THP-1 = test: Antiproliferative activity against human THP-1 cells assessed as viable cell signal at maximum growth inhibition incubated for 72 hrs by celltiter-glo assay relative to control; type: functional
RKO [2] = test: Antiproliferative activity against human RKO cells assessed as of viable cell signal at minimum maximum cell growth incubated for 72 hrs by celltiter-glo assay relative to control; type: functional
A-427 = test: Antiproliferative activity against human A-427 cells assessed as viable cell signal at maximum growth inhibition incubated for 72 hrs by celltiter-glo assay relative to control; type: functional
BXPC-3 = test: Antiproliferative activity against human BXPC-3 cells assessed as growth inhibition incubated for 72 hrs by celltiter-glo assay; type: functional
DU-145 [3] = test: Antiproliferative activity against human DU-145 cells assessed as of viable cell signal at minimum maximum cell growth incubated for 72 hrs by celltiter-glo assay relative to control; type: functional
BT-474 [4] = test: Antiproliferative activity against human BT-474 cells assessed as growth inhibition incubated for 72 hrs by celltiter-glo assay; type: functional
Raji [5] = test: Antiproliferative activity against human Raji cells assessed as viable cell signal at maximum growth inhibition incubated for 72 hrs by celltiter-glo assay relative to control; type: functional
RPMI-8226 = test: Antiproliferative activity against human RPMI-8226 cells assessed as of viable cell signal at minimum maximum cell growth incubated for 72 hrs by celltiter-glo assay relative to control; type: functional
ZR-75-1 = test: Antiproliferative activity against human ZR-75-1 cells assessed as viable cell signal at maximum growth inhibition incubated for 72 hrs by celltiter-glo assay relative to control; type: functional
MIA PaCa-2 = test: Antiproliferative activity against human MIA PaCa-2 cells assessed as of viable cell signal at minimum maximum cell growth incubated for 72 hrs by celltiter-glo assay relative to control; type: functional
A549 = test: Antiproliferative activity against human A549 cells assessed as viable cell signal at maximum growth inhibition incubated for 72 hrs by celltiter-glo assay relative to control; type: functional
SAOS-2 = test: Antiproliferative activity against human SAOS-2 cells assessed as viable cell signal at maximum growth inhibition incubated for 72 hrs by celltiter-glo assay relative to control; type: functional
MDA-MB-468 [6] = test: Antiproliferative activity against human MDA-MB-468 cells assessed as growth inhibition incubated for 72 hrs by celltiter-glo assay; type: functional
DU-145 [7] = test: Antiproliferative activity against human DU-145 cells assessed as viable cell signal at maximum growth inhibition incubated for 72 hrs by celltiter-glo assay relative to control; type: functional
OVCAR-4 [8] = test: Antiproliferative activity against human OVCAR-4 cells assessed as viable cell signal at maximum growth inhibition incubated for 72 hrs by celltiter-glo assay relative to control; type: functional
SK-OV-3 = test: Antiproliferative activity against human SK-OV-3 cells assessed as viable cell signal at maximum growth inhibition incubated for 72 hrs by celltiter-glo assay relative to control; type: functional
COLO 205 [9] = test: Antitumor activity against human COLO 205 cells xenografted in Nude mouse assessed as disorganized condense chromatin at 50 to 100 mg/kg, ip measured at 24 to 48 hrs by H and E staining based analysis; type: functional, organism-based; conditions: dose 50-100 mg/kg, time 24-48 hrs
Hep 3B2 = test: Antiproliferative activity against human Hep3B cells assessed as growth inhibition incubated for 72 hrs by celltiter-glo assay; type: functional
HCT-15 = test: Antiproliferative activity against human HCT-15 cells assessed as growth inhibition incubated for 72 hrs by celltiter-glo assay; type: functional
OVCAR-4 [10] = test: Antiproliferative activity against human OVCAR-4 cells assessed as of viable cell signal at minimum maximum cell growth incubated for 72 hrs by celltiter-glo assay relative to control; type: functional
HT-1080 = test: Antiproliferative activity against human HT-1080 cells assessed as of viable cell signal at minimum maximum cell growth incubated for 72 hrs by celltiter-glo assay relative to control; type: functional
[11] = Cytotoxicity against human HUVEC cells assessed as inhibition of cell growth incubated for 72 hrs by celltiter-glo assay; type: toxicity, cell-based
NCI-H157 = test: Antiproliferative activity against human NCI-H157 cells assessed as of viable cell signal at minimum maximum cell growth incubated for 72 hrs by celltiter-glo assay relative to control; type: functional
[12] = target: Serine/threonine-protein kinase WNK3 (Homo sapiens) (UniProt Q9BYP7); test: Inhibition of N-terminal his6-tagged recombinant human WNK3 (1 to 434 residues) expressed in baculovirus Sf21 insect cells at 10 uM relative to control
PANC-1 = test: Antiproliferative activity against human PANC-1 cells assessed as growth inhibition incubated for 72 hrs by celltiter-glo assay; type: functional
MDA-MB-468 [13] = test: Antiproliferative activity against human MDA-MB-468 cells assessed as viable cell signal at maximum growth inhibition incubated for 72 hrs by celltiter-glo assay relative to control; type: functional
RKO [14] = test: Antiproliferative activity against human RKO cells assessed as viable cell signal at maximum growth inhibition incubated for 72 hrs by celltiter-glo assay relative to control; type: functional
NCI-H522 = test: Antiproliferative activity against human NCI-H522 cells assessed as growth inhibition incubated for 72 hrs by celltiter-glo assay; type: functional
SK-MEL-2 = test: Antiproliferative activity against human SK-MEL-2 cells assessed as of viable cell signal at minimum maximum cell growth incubated for 72 hrs by celltiter-glo assay relative to control; type: functional
DLD-1 = test: Antiproliferative activity against human DLD-1 cells assessed as growth inhibition incubated for 72 hrs by celltiter-glo assay; type: functional
U2OS = test: Antiproliferative activity against human U2OS cells assessed as viable cell signal at maximum growth inhibition incubated for 72 hrs by celltiter-glo assay relative to control; type: functional
COLO 205 [15] = test: Antiproliferative activity against human COLO 205 cells assessed as of viable cell signal at minimum maximum cell growth incubated for 72 hrs by celltiter-glo assay relative to control; type: functional
COLO 205 [16] = test: Antitumor activity against human COLO 205 cells xenografted in Nude mouse assessed as tumor growth delay time at 50 mg/kg, ip administered every 2 to 4 days; type: functional; conditions: time 2-4 day
SCLC = test: Antiproliferative activity against human SCLC cells assessed as of viable cell signal at minimum maximum cell growth incubated for 72 hrs by celltiter-glo assay relative to control; type: functional
MDA-MB-231 = test: Antiproliferative activity against human MDA-MB-231 cells assessed as viable cell signal at maximum growth inhibition incubated for 72 hrs by celltiter-glo assay relative to control; type: functional
BT-474 [17] = test: Antiproliferative activity against human BT-474 cells assessed as of viable cell signal at minimum maximum cell growth incubated for 72 hrs by celltiter-glo assay relative to control; type: functional
MX1 = test: Antiproliferative activity against human MX1 cells assessed as viable cell signal at maximum growth inhibition incubated for 72 hrs by celltiter-glo assay relative to control; type: functional
BT-549 = test: Antiproliferative activity against human BT-549 cells assessed as viable cell signal at maximum growth inhibition incubated for 72 hrs by celltiter-glo assay relative to control; type: functional

Sequence of Serine/threonine-protein kinase WNK3 (Homo sapiens) (Q9BYP7 whole entry, the tested form may be a part): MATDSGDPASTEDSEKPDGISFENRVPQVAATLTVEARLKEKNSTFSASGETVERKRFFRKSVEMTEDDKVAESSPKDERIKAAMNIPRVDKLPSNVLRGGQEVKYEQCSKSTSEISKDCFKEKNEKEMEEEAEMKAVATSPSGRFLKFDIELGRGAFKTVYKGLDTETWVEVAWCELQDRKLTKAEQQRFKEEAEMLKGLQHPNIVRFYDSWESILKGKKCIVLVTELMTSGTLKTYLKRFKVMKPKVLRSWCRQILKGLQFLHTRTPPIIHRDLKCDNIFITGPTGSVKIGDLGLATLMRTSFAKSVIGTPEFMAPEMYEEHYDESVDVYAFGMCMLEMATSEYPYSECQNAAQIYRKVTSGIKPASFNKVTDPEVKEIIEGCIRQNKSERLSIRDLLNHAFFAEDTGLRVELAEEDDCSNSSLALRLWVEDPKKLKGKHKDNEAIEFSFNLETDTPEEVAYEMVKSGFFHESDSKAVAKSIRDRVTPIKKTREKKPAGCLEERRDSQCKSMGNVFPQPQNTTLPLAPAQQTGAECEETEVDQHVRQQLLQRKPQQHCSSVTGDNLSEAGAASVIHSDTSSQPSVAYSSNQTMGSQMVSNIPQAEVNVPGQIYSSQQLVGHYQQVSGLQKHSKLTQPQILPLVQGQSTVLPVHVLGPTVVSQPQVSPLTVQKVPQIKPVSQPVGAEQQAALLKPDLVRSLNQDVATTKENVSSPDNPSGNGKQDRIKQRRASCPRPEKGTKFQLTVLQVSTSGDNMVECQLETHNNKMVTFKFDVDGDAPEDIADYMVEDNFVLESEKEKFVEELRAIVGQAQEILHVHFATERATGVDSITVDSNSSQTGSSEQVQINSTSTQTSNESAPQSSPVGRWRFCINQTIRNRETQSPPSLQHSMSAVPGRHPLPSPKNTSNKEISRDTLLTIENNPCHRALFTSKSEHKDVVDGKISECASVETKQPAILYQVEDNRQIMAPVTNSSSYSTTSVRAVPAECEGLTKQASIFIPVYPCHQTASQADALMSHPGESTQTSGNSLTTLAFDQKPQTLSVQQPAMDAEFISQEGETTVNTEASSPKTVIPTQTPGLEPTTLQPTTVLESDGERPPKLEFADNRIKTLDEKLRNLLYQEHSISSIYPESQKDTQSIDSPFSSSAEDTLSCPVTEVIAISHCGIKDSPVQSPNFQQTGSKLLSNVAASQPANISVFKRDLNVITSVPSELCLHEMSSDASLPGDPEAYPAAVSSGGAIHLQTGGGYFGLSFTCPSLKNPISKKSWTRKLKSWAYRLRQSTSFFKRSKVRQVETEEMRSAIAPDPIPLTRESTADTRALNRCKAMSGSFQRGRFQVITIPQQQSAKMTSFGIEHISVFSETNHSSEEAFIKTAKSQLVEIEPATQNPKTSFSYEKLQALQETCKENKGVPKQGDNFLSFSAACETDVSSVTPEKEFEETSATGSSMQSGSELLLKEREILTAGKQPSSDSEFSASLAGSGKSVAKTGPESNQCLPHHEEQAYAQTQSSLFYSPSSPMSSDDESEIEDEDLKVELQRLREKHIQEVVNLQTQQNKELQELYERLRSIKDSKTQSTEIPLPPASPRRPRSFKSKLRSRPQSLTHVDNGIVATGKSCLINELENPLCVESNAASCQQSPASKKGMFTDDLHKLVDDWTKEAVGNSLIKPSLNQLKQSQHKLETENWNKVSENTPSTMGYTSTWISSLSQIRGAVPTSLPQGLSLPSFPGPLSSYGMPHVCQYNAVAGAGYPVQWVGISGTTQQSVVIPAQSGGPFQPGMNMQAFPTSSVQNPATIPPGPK

SMILES: C[C@@H](Oc1cc(-n2cnc3ccc(CN4CCN(C)CC4)cc32)sc1C(N)=O)c1ccccc1C(F)(F)F [GSK-461364]
- GI50 (Calu-1): 0.186 µM
- Emax (SK-MEL-5): 258%
- GI50 (Raji [1]): 0.0253 µM
- Emax (THP-1): 349%
- Emin (RKO [2]): 218%
- Emax (A-427): 218%
- GI50 (BXPC-3): 0.0231 µM
- Emin (DU-145 [3]): 69.1%
- GI50 (BT-474 [4]): 7.09 µM
- Emax (Raji [5]): 434%
- Emin (RPMI-8226): 34.6%
- Emax (ZR-75-1): 229%
- Emin (MIA PaCa-2): 100.2%
- Emax (A549): 632%
- Emax (SAOS-2): 403%
- GI50 (MDA-MB-468 [6]): 0.00635 µM
- Emax (DU-145 [7]): 500%
- Emax (OVCAR-4 [8]): 342%
- Emax (SK-OV-3): 345%
- Activity (COLO 205 [9]): Active
- GI50 (Hep 3B2): 0.0358 µM
- GI50 (HCT-15): 0.0909 µM
- Emin (OVCAR-4 [10]): 164.7%
- Emin (HT-1080): 62.5%
- IC50 at 72 h [11]: 0.007 µM
- Emin (NCI-H157): 95.3%
- inhibition [12]: 68%
- GI50 (PANC-1): 0.0449 µM
- Emax (MDA-MB-468 [13]): 458%
- Emax (RKO [14]): 456%
- GI50 (NCI-H522): 0.0169 µM
- Emin (SK-MEL-2): 71.3%
- GI50 (DLD-1): 0.0489 µM
- Emax (U2OS): 771%
- Emin (COLO 205 [15]): 102.6%
- Time (COLO 205 [16]): 39 days
- Emin (SCLC): 122%
- Emax (MDA-MB-231): 520%
- Emin (BT-474 [17]): 217%
- Emax (MX1): 498%
- Emax (BT-549): 265%
